Legend:
[1] = tested on: JJN3 cells; assay: Cell death with ABT-199 co-treatment in JJN3 cells (AnnexinV/DAPI); type: cell-based; conditions: co-treatment with ABT-199
Method: (§1) Cell death was evaluated by AnnexinV/DAPI flow cytometric staining.
(§2) IC50 studies were performed using the CellTiter-Glo assay (Promega, Madison, Wis.). 20,000 cells in 100 ul complete RPMI 1640 medium were plated per well in 96-well plates, with a concentration range of individual compounds. After 72 h incubation, 100 uL Glo reagent were added to each well and luminescence was measured using a Biotek Synergy 4 multimode plate reader. Cell number was assessed by trypan blue standing and an automatic cell counter (Biorad). For cell viability assays 0.125×10^6 cells/mL were treated with the indicated concentration of drug, washed with 1×PBS and evaluated for viability by AnnexinV/DAPI staining and flow cytometry. Data analysis was per-formed with the FCS express version 3 (De Novo software, Los Angeles).
(§3) KD of GLUT4 and glucose deprivation lead to variable suppression of the pro-survival anti-apoptotic protein MCL-1. […] Compound 20 was evaluated for sensitizing MM patient samples to ABT-199. CD38+/CD45− gated myeloma cells from myeloma patient bone marrow aspirates were evaluated for viability after 48 hrs of treatment. […] To rule out the cytotoxic effect of co-treatment of compound 20 with either ABT-199 or dexamethasone on other non-myeloma cell populations, cell viability of CD38−/CD45− and CD38−/CD45+ cells were analyzed within the MM patient sample bone marrow aspirate (FIG. 6G). […]

[2] = tested on: CD38+/CD45- gated myeloma cells from myeloma patient bone marrow aspirates; assay: Cell death of myeloma cells from MM patient bone marrow aspirates; type: cell-based, human
Method: CD38-phyocerythrin and CD45-allophycocyanin-Cy7 positive myeloma cells were evaluated for cell death.
(§4) KD of GLUT4 and glucose deprivation lead to variable suppression of the pro-survival anti-apoptotic protein MCL-1. […] Cells resistant to glucose deprivation-induced cell death increase binding of pro-apoptotic BIM to BCL-2, facilitating sensitization to the BH3 mimetic venetoclax (ABT-199). 22 Treatment of glucose-deprived resistant cells with ABT-199 releases the additional BIM bound to BCL-2, inducing apoptosis. […] Compound 20 was evaluated for sensitizing MM patient samples to ABT-199. CD38+/CD45− gated myeloma cells from myeloma patient bone marrow aspirates were evaluated for viability after 48 hrs of treatment. […] The ability of compound 20 to sensitize MM cells and induce cell death to the commonly used steroid dexamethasone (Dex) was tested. […] To rule out the cytotoxic effect of co-treatment of compound 20 with either ABT-199 or dexamethasone on other non-myeloma cell populations, cell viability of CD38−/CD45− and CD38−/CD45+ cells were analyzed within the MM patient sample bone marrow aspirate (FIG. 6G). […] Lastly, compound 20 was also found to sensitize MM.15 cells to a dose range of the alkylating agent melphalan (Mel) that was assessed in a 72 hr treatment period (FIG. 6H).

[3] = target: T1, GLUT4 (Homo sapiens, UniProt P14672); assay: 2-DOG transport in HEK293 cells over-expressing GLUT4; type: cell-based
T1 construct: expressed in transfected cells; host or cells: HEK293 stably expressing GLUT1 shRNA
T1 sequence (P14672 1-509): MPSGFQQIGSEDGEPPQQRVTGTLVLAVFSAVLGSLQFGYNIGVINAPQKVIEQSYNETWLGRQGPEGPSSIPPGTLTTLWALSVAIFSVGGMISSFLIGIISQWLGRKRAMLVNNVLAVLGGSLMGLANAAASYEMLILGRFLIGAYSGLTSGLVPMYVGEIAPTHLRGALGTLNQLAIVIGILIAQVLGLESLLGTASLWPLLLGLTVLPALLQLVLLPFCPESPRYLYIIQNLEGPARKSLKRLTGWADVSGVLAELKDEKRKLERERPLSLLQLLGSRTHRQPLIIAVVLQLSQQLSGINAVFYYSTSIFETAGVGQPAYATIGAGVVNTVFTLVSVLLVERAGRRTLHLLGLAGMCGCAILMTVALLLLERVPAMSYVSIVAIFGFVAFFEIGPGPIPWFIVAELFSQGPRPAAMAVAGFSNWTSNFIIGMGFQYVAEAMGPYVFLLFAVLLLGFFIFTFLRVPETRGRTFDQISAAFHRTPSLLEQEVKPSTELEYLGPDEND
Method: (§5) Tissue culture plates were pretreated with 25 μg/ml polyethyleneimine (Fluka, catalogue number P3143) in 150 mM NaCl for 20min to let cells adhere. JNN3 cells were subsequently plated and grown to 40-60% confluency in complete RPMI 1640 medium. HEK293 GLUT overexpressing cells were plated at 400,000 cells/ml overnight. Cells were then washed with glucose-free HEPES buffer twice and starved for 30 min. The uptake of 2-[^3H] deoxy-D-glucose (2-DOG) (50 μM) was measured in glucose-free HEPES buffer for 4-6 min at 37° C. Compound 20 (20 μM) was added 5-6 min prior to the addition of glucose depending on the specific assay. For the HEK293 GLUT overexpressing cells, non-specific uptake was measured in non-transfected HEK293 cells containing the shRNA GLUT1 knockdown and was subtracted from the experimental values. Data are plotted as percent uptake relative to unexposed HEK293 cultures. Data were normalized to fit by nonlinear regression analysis using GraphPad Prism software.
Compound 20 was further screened for GLUT4 selectivity by evaluating inhibition of glucose transport in HEK 293 cells exogenously over-expressing human GLUTs-1, -2, -3, -4, or -8 that also stably express GLUT1 shRNA (except the GLUT1 overexpressing cell line) to knock down endogenous GLUT1.
Glucose transport in HEK293 cells over-expressing GLUT1 or over-expressing GLUT4 or GLUT8 in cells lacking GLUT1 were used to evaluate inhibition of glucose transport. Cells were pre-treated with compound for 5 minutes followed by evaluation of […] uptake for 4 min at […]. Non-specific uptake was measured in nontransfected HEK293 cells containing the shRNA GLUT1 knockdown and was subtracted from the experimental values.

[4] = tested on: FAK; assay: FAK activation, scratch assay; type: cell-based; conditions: FIG. 8
[5] = tested on: KMS11 cells; assay: Cell viability by AnnexinV/DAPI staining and flow cytometry in KMS11 cells; type: cell-based; conditions: compared with compounds 8, 9, 17
Method: as §2
They were selected and their effect on cell viability evaluated by AnnexinV/DAPI staining and flow cytometric analysis.

[6] = tested on: MCL-1; assay: Immunoblot of MCL-1 expression in MM cells; type: cell-based; conditions: L363 cells vs JJN3, 15 μM for 18 hours
[7] = tested on: KMS11-GLUT1 cells; assay: Proliferation of KMS11-GLUT1 myeloma cells (Cell Titre Glo); type: cell-based; conditions: inhibition of proliferation, 72 hours
Method: as §2
(§6) Compound were selected as a lead based on its low IC50, selectivity for inhibition of glucose transport through GLUT4, and inhibition of the KMS11-GFP cell line proliferation in contrast to the GLUT1 expressing isogenic line. Compounds were assessed in a high-throughput proliferation-based assay using an isogenic MM (KMS11) cell line pair overexpressing GLUT1 or GFP (as a control) (model of screen is depicted in FIG. 2A). […] Isogenic KMS11-GFP/GLUT1 overexpressing myeloma cell lines were treated with a dose range of the indicated test compound for 72 hours followed by evaluation of viable cell number by Cell Titre Glo assay

[8] = tested on: CD38-/CD45- and CD38-/CD45+ cells; assay: Viability of normal non-myeloma cell populations in MM patient bone marrow aspirate; type: cell-based; conditions: in combination with either ABT-199 or Dex
Description: Data from patient #6 is representative of patient samples evaluated.
as §4, with “tested. Compound 20 treated MM.1S cells were exposed to a dose range of Dex (0.00195 μM to 1 μM) for 72 hr (FIG. 6E).” for “tested.”

[9] = tested on: JJN3 cells expressing GLUT4 shRNA; assay: Viability/proliferation of JJN3 cells with GLUT4 shRNA (trypan blue, cell counter); type: cell-based; conditions: 15 μM, 72 hours
Method: as §2
(§7) Impact of compound 20 was evaluated on glucose uptake in MM cells.

[10] = tested on: follower lung cancer cell; assay: Follower lung cancer cell invasion; type: cell-based; conditions: FIG. 7
[11] = tested on: MM.1S cells; assay: Cell death with dexamethasone or melphalan co-treatment in MM.1S cells (AnnexinV/DAPI); type: cell-based; conditions: 72 hr
Method: as §1, §2, §3

[12] = tested on: KMS11-GFP cells; assay: Proliferation of KMS11-GFP myeloma cells (Cell Titre Glo); type: cell-based
Method: as §2, §6

[13] = tested on: JJN3 cells; assay: 2-[3H]deoxyglucose uptake in JJN3 cells; type: cell-based; conditions: 20 μM, 6 min pre-treatment, 6 min uptake at 37 degrees C; compared with GLUT4 shRNA
Method: as §5, §7

[14] = tested on: L363 cells; assay: Cell death with ABT-199 co-treatment in L363 cells (AnnexinV/DAPI); type: cell-based; conditions: 10 μM with 0.025 μM-3 μM ABT-199, 72 hours
Method: Compound 20 decreasing MCL-1 expression and sensitizing MM cell lines to Venetoclax (ABT-199),
as §1
as §2, with “Data analysis was per-formed with the FCS express version 3 (De Novo software, Los Angeles).” left out
as §3

Question: Which “sensitivity to ABT-199, JJN3 cell line” value [1] does the source give for `COc1ccc(CC(=O)N(Cc2ccncc2)Cc2cccc(OCCc3ccc(F)cc3)c2)cc1` [Compound 20, N-(3-(4-fluorophenethoxy)benzyl)-2-(4-methoxyphenyl)-N-(pyridin-4-ylmethyl)acetamide] here?
Answer: increased sensitivity to ABT-199

Question: What about the “sensitization of MM patient samples to combination with dexamethasone” value ([2]; 0.5 μM dexamethasone and 10 μM compound 20, 48 hr) of the same molecule?
Answer: sensitized

Question: And the “relapse/refractory patient samples with greater apoptosis on co-treatment with ABT-199 than either drug alone” value ([2]; 10 μM with 0.5 μM ABT-199, 48 hrs)?
Answer: 4 of 7

Question: What about the “selectivity of glucose transport inhibition among human GLUTs-1, -2, -3, -4, -8” value ([3]; HEK 293 cells over-expressing human GLUTs, 4 minute uptake of 2-DOG) of the same molecule?
Answer: selective for GLUT4 over GLUTs 1, 2, 3 and 8

Question: What about the IC50 ([3]; pre-treated 5 minutes, 2-DOG uptake 4 min, cells lacking GLUT1, read-out: IC50 (inhibition of 2-DOG transport in HEK cells over-expressing GLUT isoforms) GLUT4) of the same molecule?
Answer: 18.2 µM

Question: And the FAK activation [4]?
Answer: inhibits FAK activation

Question: And the “cell death in KMS11 cells” value [5]?
Answer: greater cell death

Question: And the MCL-1 expression [6]?
Answer: significantly reduced

Question: And the EC50 [7]?
Answer: 21.8 µM

Question: What about the “viability of normal non-myeloma cell populations” value [8] of the same molecule?
Answer: did not impact the viability

Question: What about the “viable cell counts in GLUT4 knockdown cells” value [9] of the same molecule?
Answer: no further reduction

Question: And the “follower lung cancer cell invasion” value [10]?
Answer: inhibits follower lung cancer cell invasion

Question: What about the “sensitization to melphalan (Mel)” value ([11]; 10 μM with 0.01 μM-4 μM melphalan) of the same molecule?
Answer: sensitize

Question: What about the “sensitization to dexamethasone (Dex), cell death in MM.1S” value ([11]; 10 μM with Dex 0.00195 μM to 1 μM) of the same molecule?
Answer: significant sensitization and cell death

Question: What about the EC50 ([12]; inhibition of proliferation, 72 hours, Cell Titre Glo) of the same molecule?
Answer: 13.4 µM

Question: And the “impact on proliferation in KMS11-GFP cells compared with KMS11-GLUT1 cells” value ([12]; isogenic cell line pair)?
Answer: greater impact on proliferation in KMS11-GFP cells

Question: And the “2-DOG uptake in JJN3 cells” value [13]?
Answer: effectively reduced

Question: And the “sensitivity to ABT-199, L363 cell line” value [14]?
Answer: increased sensitivity to ABT-199

Reference: patent US20190321345A1, “GLUT4 Selective Inhibitors for Cancer Therapy” (Emory University, priority 2016, published 2019)
